Data from US20050020544A1, “Bicyclic CB2 cannabinoid receptor ligands” (priority 2002, published 2005).

Columns and labels:
adult male ICR mice = assay: Ear edema model (Croton oil); format: in vivo, mouse; conditions: 3 hours after Croton oil
Experimental: The anti-inflammatory activity of the novel bicyclic CB2 ligands was screened in vivo using an ear edema model in mice. This test system utilizes various inflammation inducers, including Croton oil (CO) and Arachidonic acid (AA) and the outcome is assessed by measuring ear tissue swelling. […] The ability of the test compounds to prevent or diminish the inflammatory response to these stimulants is indicative of their systemic anti-inflammatory capability.
Compound A was dissolved in CREMOPHOR EL®:ethanol and injected i.p. in adult male ICR mice (30 g average body weight, Harlan, Israel) after dilution with sterile 0.9% sodium chloride to desired final concentrations according to required doses. Various doses of compounds were checked ranging from 0 to 30 mg/kg. Each treatment group was composed of 8-10 animals while the vehicle treated group was composed of 16 animals. […] Ear thickness was determined (in 0.01 mm units) 3 hours after CO application using a dial thickness gauge (Mitutoyo, Japan). Finally the ears were trimmed, an ear punch of 6 mm diameter was removed and its weight was measured. The ear edema is expressed as the ratio of ear punch weight of the CO treated ear versus the contralateral Acetone treated ear. Results are calculated as % inhibition as compared to CREMOPHOR EL®:ethanol vehicle treated animals.

Lewis rats = format: in vivo, rat
Experimental: Various animal models of autoimmune encephalomyelitis are known in the art, depending on the method of induction, the strain of the animal and the antigen employed to induce the disease. The impact of bicyclic CB2 ligands was tested in EAE using Lewis rats in which the onset of disease is observed by the appearance of clinical symptoms about 10 days after induction. The disease progress and the clinical score increase and peak around day 15 and spontaneous recovery is observed around day 18 after induction of the disease. The animals (at least 9 per test group at initiation of study, except for the untreated control group that comprised only 5 rats) were maintained on a 12 hours light/12 hours dark regimen, at a constant temperature of 22° C., with food and water ad libitum. EAE was induced in these animals by immunization with s.c. injection to the hind paws of 25 μg of purified guinea pig myelin basic protein (MBP, Sigma) emulsified in 0.1 ml of Complete Freund's Adjuvant (Difco).
Methylprednisolone was used as positive control and it was administered daily for 5 consecutive days i.v. at 30 mg/kg starting from day of disease induction by MBP injection. The results are recorded as clinical score; score of 0 indicates a normal animal with no clinical signs, 0.5 indicates a loss of tonicity in the tail's distal part, 1 indicates whole tail paralysis, 2 indicates paraplegia, 3 indicates quadriplegia, 4 indicates complete body paralysis and moribund state and 5 indicates death. The clinical score of the animals is recorded for 11 days following onset of disease and the area under the curve (AUC) is calculated over this period of time.
Moreover, in a separate study animals were euthanized 15 days after induction of the disease by i.p. injection of 100 mg/kg pentobarbital. Brains and spinal cord were removed and were fixed by overnight incubation with 4% Paraformaldehyde. The cervical segment of the spinal cord was dehydrated using ethanol solutions of increasing concentration and then embedded in paraplast. The spinal cord was then sectioned (10 μm) and staining was performed using hematoxylin and eosin. The stained slides were examined under light microscopy for foci of infiltrating lymphocytes. Number of foci were counted and averaged in 6 sections for each animal. Three groups of at least 4 animals each were tested in this system: untreated, vehicle treated, and animals treated with 0.5 mg/kg of compound A. Results are expressed as average±SD of number of foci.

Male ICR mice = assay: Rotarod locomotor ability; format: in vivo, mouse; conditions: 10 mg/kg i.p.
Experimental: The effect of test compounds on overall locomotor ability was assessed in a second experimental setup, where the animals were submitted to a functional test using the rotarod apparatus as described by Rozas et al. (Rozas G. et al., J. of Neuroscience Methods 83: 165-75, 1998). The animals, male ICR mice (average body weight 40 g, Harlan, Israel), were trained for 4 days before beginning the experiment. Their task was to stay on the accelerating rod without falling for 12 minutes (3 minutes at each speed). The tested speeds were: 15, 19, 23 and 27 rpm. Animal performance on the rod was scored as follows: each animal could obtain a maximum of 3 points (1 for each minute) for full walking on the rod at each speed. Therefore, an animal could get a maximum score of 12 points (3 for each speed). Catching the circling beam of the rod without walking subtracted 0.5 points for every 3 circles circled by the animal. […] After proper training, at least 6 animals per group were administered i.p. with various doses of test compounds and controls, at volume dose of 5 ml/kg. Score was determined in the rotarod apparatus at time zero prior to compound injection and 30 minutes, 3 and 24 hours after compound or vehicle administration.
Results are expressed as mean±SD and the differences between vehicle and treatments are compared by ANOVA, followed by post-hoc Tukey's test. […] This effect disappeared at later time points with average scores of 9.7 and 11.9 at 3 and 24 hours respectively.

ICR male mice = assay: Development of tolerance on repeated administration, tail flick model; conditions: 10 mg/kg twice daily i.p.
Experimental: ICR male mice (20-30 g average body weight, Harlan, Israel) were injected i.p. at the volume dose of 5 ml/kg. Each treatment group contained at least 6 animals. Morphine HCl was used as positive control at the final dose of 5 mg/kg. Its vehicle, saline, was also included as control. The test compounds were dissolved in CREMOPHOR EL®:ethanol and diluted 1:20 in saline prior to injection, this second type of vehicle was also included as negative control. The final dose injected varied from 0.1 to 10 mg/kg. At predetermined time points after treatment injection, the animals were placed in the tail flick system (Socrel, model DS 20). Animals were gently held while their tails were located above the photoelectric cell. The tails were then illuminated (21V) at 2 cm from the distal tip and the latency time, measured in seconds, was recorded in duplicates. At the end of the study, the animals were euthanized by i.p. injection of 100 mg/kg sodium pentobarbitone.
Tolerance was assessed in the tail flick model above described. Briefly, the test compounds were administered twice daily i.p. for up to 10 days to groups of 10 animals each. The noxious pain threshold was measured as previously described in example 13 thirty minutes after the first drug administration on days 1, 4, 8 and 10. Results are expressed as mean latency time till the animal flicked its tail±SE. The differences between the latency times or the % of animals showing analgesia among various treatment groups was analyzed by analysis of variance (ANOVA) followed by post-hoc Tukey's test (for latency) or Fisher's exact test (for % animals). A value of p<0.05 is considered to be statistically significant.

SMILES: CCCCCCC(C)(C)c1cc(O)c(C2CC(=O)C3CC2C3(C)C)c(O)c1 (single isomer, unassigned; (-)) [Compound A, (−)-4-[4-(1,1-Dimethyl-heptyl)2,6-dihydroxy-phenyl]-6,6-dimethyl-bicyclo[3.1.1)heptan-2-one]
- ED50 (adult male ICR mice; Mus musculus, ip): 30 mg/kg
- ED50 ear edema (adult male ICR mice; i.p.): 81 µmol/kg
- decrease of infiltration (Lewis rats; 0.5 mg/kg, 15 days after induction): more than 50%
- number of infiltration foci in spinal cord (Lewis rats; 0.5 mg/kg, 15 days after induction, average±SD): 10±5 foci/section
- reduction in the clinical score (Lewis rats; 1 mg/kg, independent blinded repeat): 30%
- reduction in the AUC of the clinical score (Lewis rats; 1 mg/kg, three consecutive days from onset of disease): 35%
- therapeutic index (Lewis rats; EAE, 1 mg/kg versus tolerated 40 mg/kg): at least 40
- rotarod average score (Male ICR mice; 3 hours): 9.7
- rotarod average score (Male ICR mice; 24 hours): 11.9
- rotarod average score (Male ICR mice; thirty minutes, maximal score 12): 5.6
- development of tolerance (ICR male mice; 20 administrations): did not cause the development of tolerance
- % of animals showing increased analgesia (ICR male mice; day 10): 80%
- latency time (ICR male mice; day 10): 7 s
- % of animals showing increased analgesia (ICR male mice; day one): 88%
- latency time (ICR male mice; day one): 8.1 s
